For data set [1] the following is noted: dog, in vivo.
The conditions of data set [2]: human, in vivo, cited from earlier work.

Regarding `O=[As]O[As]=O` (stereo not drawn) [SV100], in data set [1], the oral absorption entry is “very limited absorption” and the “oral bioavailability (F^b %)” value is on record as under 10%.
In the case of arsenic acid [Asv], the level in plasma result in data set [2] is “relatively low levels”.
arsenious acid [AsIII]: the “time to peak plasma concentration (end of infusion)” value in data set [2] (0.15 mg/kg) is 2 h. Moreover, in data set [2], the “accumulation, Day 25 versus Day 1 of Cycle 1” value was about 2 fold; the mean elimination half-life is 10 to 14 h; the renal clearance is given as 9 L/h; the total clearance is reported as 49 L/h. In addition, in data set [2], the “volume of distribution (Vss)” value is listed as 562 L.

These data come from US10272045B2 (priority 2015, dated 2019).
